Columns and labels:
Settings in all cases: 72 h
BV-173 [1] = system: BV-173
In short: (§1)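 Fifteen myeloid leukaemia lines in RPMI 1640 were treated for 72 h at 37 °C and 5% CO2 with five tenfold doses from 1 to 10,000 nM, in duplicate. ATP luminescence was normalised to vehicle and to a positive control at 10 µM, then fitted with a four-parameter log-logistic model. The IC50 came from these fits.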

HEL [2] = system: HEL
In short: as §1

HL-60 [3] = system: HL-60
In short: as §1

K-562 [4] = system: K-562
In short: as §1

KCL-22 [5] = system: KCL-22
In short: as §1

KG-1 [6] = system: KG-1
In short: as §1

KU-812 [7] = system: KU-812
In short: as §1

LAMA-84 [8] = system: LAMA-84
In short: as §1

ML-2 [9] = system: ML-2
In short: as §1

MOLM-13 [10] = system: MOLM-13
In short: as §1

MV4-11 [11] = system: MV4-11
In short: as §1

Mono-Mac-6 [12] = system: Mono-Mac-6
In short: as §1

NOMO-1 [13] = system: NOMO-1
In short: as §1

SHI-1 [14] = system: SHI-1
In short: as §1

THP-1 [15] = system: THP-1
In short: as §1

BV-173 [16] = experiment: cell viability (% survival relative to DMSO control, bortezomib = 0%); higher = less cytotoxic
In short: (§2)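 Reported values are percent survival from duplicate wells, averaged. Fifteen myeloid leukaemia cell lines were treated in 384-well plates with compounds at 1, 10, 100, 1000 or 10000 nM for 72 h at 37 °C in 5% CO2. Signals from CellTiter-Glo luminescence were scaled with vehicle as 100% and a 10 µM positive control as 0%.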

HEL [17] = experiment: as above
In short: as §2

HL-60 [18] = experiment: as above
In short: as §2

K-562 [19] = experiment: as above
In short: as §2

KCL-22 [20] = experiment: as above
In short: as §2

KG-1 [21] = experiment: as above
In short: as §2

KU-812 [22] = experiment: as above
In short: as §2

LAMA-84 [23] = experiment: as above
In short: as §2

ML-2 [24] = experiment: as above
In short: as §2

MOLM-13 [25] = experiment: as above
In short: as §2

MV4-11 [26] = experiment: as above
In short: as §2

Mono-Mac-6 [27] = experiment: as above
In short: as §2

NOMO-1 [28] = experiment: as above
In short: as §2

SHI-1 [29] = experiment: as above
In short: as §2

THP-1 [30] = experiment: as above
In short: as §2

Cc1nnc(-c2ccc(N3CCC(Oc4ccccc4C(F)(F)F)CC3)nn2)s1 [MF-438]
Settings | IC50 (cell viability) [µM]
BV-173 [1] | > 10
HEL [2] | > 10
HL-60 [3] | > 10
K-562 [4] | 0.0472
KCL-22 [5] | 2.29
KG-1 [6] | > 10
KU-812 [7] | > 10
LAMA-84 [8] | > 10
ML-2 [9] | > 10
MOLM-13 [10] | 0.0687
MV4-11 [11] | 9.32
Mono-Mac-6 [12] | > 10
NOMO-1 [13] | > 10
SHI-1 [14] | > 10
THP-1 [15] | > 10

cell viability [%]
Settings | 1 nM | 10 nM | 100 nM | 1000 nM | 10000 nM
BV-173 [16] | 96.1 | 108 | 89.4 | 137 | 99.4
HEL [17] | 102 | 91.9 | 106 | 122 | 106
HL-60 [18] | 93.6 | 92.5 | 87 | 127 | 56.5
K-562 [19] | 97 | 103 | 32.4 | 38.2 | 38.1
KCL-22 [20] | 103 | 99.6 | 69 | 61.3 | 49.5
KG-1 [21] | 62.5 | 133 | 94.3 | 115 | 106
KU-812 [22] | 93.9 | 103 | 83.9 | 113 | 97.5
LAMA-84 [23] | 93.4 | 85.4 | 88 | 76.9 | 92.6
ML-2 [24] | 96 | 114 | 98.6 | 117 | 88.3
MOLM-13 [25] | 63.7 | 86.7 | 33.9 | 41.3 | 36.6
MV4-11 [26] | 91 | 109 | 91.2 | 99.2 | 45.3
Mono-Mac-6 [27] | 101 | 100 | 95.5 | 99 | 103
NOMO-1 [28] | 97.9 | 99.2 | 92.8 | 108 | 103
SHI-1 [29] | 98.9 | 98.2 | 102 | 113 | 80.9
THP-1 [30] | 97.9 | 110 | 96.5 | 102 | 98.1

CC(C)(F)C[C@H](N[C@@H](c1ccc(-c2ccc(S(C)(=O)=O)cc2)cc1)C(F)(F)F)C(=O)NC1(C#N)CC1 [Odanacatib]
Settings | IC50 (cell viability) [µM]
BV-173 [1] | > 10
HEL [2] | > 10
HL-60 [3] | > 10
K-562 [4] | > 10
KCL-22 [5] | > 10
KG-1 [6] | > 10
KU-812 [7] | > 10
LAMA-84 [8] | > 10
ML-2 [9] | > 10
MOLM-13 [10] | > 10
MV4-11 [11] | > 10
Mono-Mac-6 [12] | > 10
NOMO-1 [13] | > 10
SHI-1 [14] | > 10
THP-1 [15] | > 10

cell viability [%]
Settings | 1 nM | 10 nM | 100 nM | 1000 nM | 10000 nM
BV-173 [16] | 85.1 | 104 | 101 | 88.7 | 106
HEL [17] | 104 | 107 | 99.9 | 92.7 | 107
HL-60 [18] | 143 | 105 | 114 | 118 | 83.3
K-562 [19] | 101 | 106 | 104 | 91.8 | 103
KCL-22 [20] | 128 | 96.9 | 104 | 93.7 | 122
KG-1 [21] | 103 | 99.6 | 95.6 | 107 | 103
KU-812 [22] | 94.8 | 87.9 | 99.7 | 91.8 | 99.2
LAMA-84 [23] | 104 | 103 | 106 | 89 | 102
ML-2 [24] | 107 | 101 | 96.5 | 100 | 101
MOLM-13 [25] | 128 | 99.5 | 108 | 96.4 | 117
MV4-11 [26] | 109 | 105 | 111 | 97.9 | 112
Mono-Mac-6 [27] | 96.4 | 101 | 101 | 99.2 | 85.5
NOMO-1 [28] | 99.6 | 100 | 108 | 102 | 100
SHI-1 [29] | 109 | 107 | 99.9 | 98.5 | 117
THP-1 [30] | 99.2 | 99.6 | 100 | 94.9 | 95.7

Reference: the supplement of paper PMC8671470
